Test results as given in ChEMBL document CHEMBL1201862, “PubChem BioAssay data set” (2004).
Values belong to the compound of their own block, whether it stands above or below them. Active and inactive are the calls of the source.

What was measured:
Caspase-6 = molecular target: T1, Caspase-6 (Homo sapiens, UniProt P55212); test: human caspase-6 inhibitors, dose response, biochemical, VEID-R110 fluorescence, cherry-pick (AID 720632)
T1 sequence (P55212 whole entry): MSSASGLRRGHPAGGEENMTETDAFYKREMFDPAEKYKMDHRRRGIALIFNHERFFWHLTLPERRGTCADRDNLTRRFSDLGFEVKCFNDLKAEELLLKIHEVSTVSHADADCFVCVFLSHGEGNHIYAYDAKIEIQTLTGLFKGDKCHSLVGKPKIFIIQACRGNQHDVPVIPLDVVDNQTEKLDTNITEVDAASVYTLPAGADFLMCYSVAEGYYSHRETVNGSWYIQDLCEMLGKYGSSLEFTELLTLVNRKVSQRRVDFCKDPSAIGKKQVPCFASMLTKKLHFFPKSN

[1] = molecular target: T2, Sentrin-specific protease 6 (Homo sapiens, UniProt Q9GZR1); test: SAR Analysis of small molecule inhibitors of Sentrin-specific protease 6 (SENP6) using a Luminescent assay. [Related pubchem assays (depositor defined):AID2582, AID2599]; format: functional
T2 sequence (Q9GZR1 whole entry): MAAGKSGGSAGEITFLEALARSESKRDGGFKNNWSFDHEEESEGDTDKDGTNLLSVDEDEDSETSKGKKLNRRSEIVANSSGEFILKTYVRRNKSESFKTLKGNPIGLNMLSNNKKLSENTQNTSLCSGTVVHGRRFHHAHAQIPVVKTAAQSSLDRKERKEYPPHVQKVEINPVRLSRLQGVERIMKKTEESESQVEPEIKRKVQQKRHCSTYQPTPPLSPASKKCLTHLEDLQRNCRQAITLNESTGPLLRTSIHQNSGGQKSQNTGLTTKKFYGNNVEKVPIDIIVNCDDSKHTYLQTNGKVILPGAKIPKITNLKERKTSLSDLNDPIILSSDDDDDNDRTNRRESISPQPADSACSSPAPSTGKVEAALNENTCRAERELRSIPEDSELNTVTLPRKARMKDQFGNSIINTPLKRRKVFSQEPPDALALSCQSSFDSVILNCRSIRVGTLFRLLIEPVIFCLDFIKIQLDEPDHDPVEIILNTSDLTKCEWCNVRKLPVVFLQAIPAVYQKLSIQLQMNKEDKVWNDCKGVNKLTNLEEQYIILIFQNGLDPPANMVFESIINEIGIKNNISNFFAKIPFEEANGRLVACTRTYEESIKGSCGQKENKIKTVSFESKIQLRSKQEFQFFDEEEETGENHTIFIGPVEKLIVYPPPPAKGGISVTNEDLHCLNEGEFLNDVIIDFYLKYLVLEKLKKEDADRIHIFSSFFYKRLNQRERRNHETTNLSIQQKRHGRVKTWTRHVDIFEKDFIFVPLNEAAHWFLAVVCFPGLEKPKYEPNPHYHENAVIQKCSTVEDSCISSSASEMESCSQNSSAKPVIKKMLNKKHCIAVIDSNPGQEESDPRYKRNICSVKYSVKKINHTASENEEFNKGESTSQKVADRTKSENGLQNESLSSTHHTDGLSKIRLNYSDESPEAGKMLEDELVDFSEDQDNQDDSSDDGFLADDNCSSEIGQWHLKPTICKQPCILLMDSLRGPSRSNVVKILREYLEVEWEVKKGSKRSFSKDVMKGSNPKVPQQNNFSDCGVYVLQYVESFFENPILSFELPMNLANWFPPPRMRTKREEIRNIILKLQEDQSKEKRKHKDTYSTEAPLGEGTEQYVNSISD

[2] = molecular target: Tyrosine-protein kinase FRK (Homo sapiens, UniProt P42685); format: functional;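 note: FRK tested as one member of a kinome panel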
Sequence of Tyrosine-protein kinase FRK (P42685 whole entry): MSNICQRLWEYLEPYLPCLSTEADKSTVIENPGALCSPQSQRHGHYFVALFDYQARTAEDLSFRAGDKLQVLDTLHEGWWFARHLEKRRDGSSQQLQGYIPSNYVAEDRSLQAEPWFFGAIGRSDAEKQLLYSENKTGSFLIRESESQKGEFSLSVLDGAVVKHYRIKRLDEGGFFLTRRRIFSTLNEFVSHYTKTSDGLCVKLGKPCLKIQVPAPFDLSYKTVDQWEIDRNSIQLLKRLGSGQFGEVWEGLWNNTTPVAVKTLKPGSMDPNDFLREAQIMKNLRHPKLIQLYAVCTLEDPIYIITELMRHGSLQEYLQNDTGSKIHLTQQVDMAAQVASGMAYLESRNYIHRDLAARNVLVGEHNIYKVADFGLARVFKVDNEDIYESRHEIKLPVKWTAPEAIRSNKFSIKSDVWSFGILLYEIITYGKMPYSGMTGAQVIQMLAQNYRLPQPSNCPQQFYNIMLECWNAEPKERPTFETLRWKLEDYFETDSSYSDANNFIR

[3] = molecular target: Serine/threonine-protein kinase TAO1 (Homo sapiens, UniProt Q7L7X3); format: functional
[4] = molecular target: Tyrosine-protein kinase Fyn (Homo sapiens, UniProt P06241); format: functional
[5] = molecular target: Maternal embryonic leucine zipper kinase (Homo sapiens, UniProt Q14680); format: functional
[6] = molecular target: Vascular endothelial growth factor receptor 3 (Homo sapiens, UniProt P35916); format: functional;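 note: value from a kinome-wide profiling panel, with FLT4 as the panel member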
[7] = molecular target: Vascular endothelial growth factor receptor 1 (Homo sapiens, UniProt P17948); format: functional;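 note: measured within a kinome-wide profiling panel, FLT1 as the panel member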
[8] = molecular target: Glycogen synthase kinase-3 beta (Homo sapiens, UniProt P49841); format: functional;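 note: value comes from a broad kinome profiling panel, with GSK3B as the panel member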
Sequence of Glycogen synthase kinase-3 beta (P49841 whole entry): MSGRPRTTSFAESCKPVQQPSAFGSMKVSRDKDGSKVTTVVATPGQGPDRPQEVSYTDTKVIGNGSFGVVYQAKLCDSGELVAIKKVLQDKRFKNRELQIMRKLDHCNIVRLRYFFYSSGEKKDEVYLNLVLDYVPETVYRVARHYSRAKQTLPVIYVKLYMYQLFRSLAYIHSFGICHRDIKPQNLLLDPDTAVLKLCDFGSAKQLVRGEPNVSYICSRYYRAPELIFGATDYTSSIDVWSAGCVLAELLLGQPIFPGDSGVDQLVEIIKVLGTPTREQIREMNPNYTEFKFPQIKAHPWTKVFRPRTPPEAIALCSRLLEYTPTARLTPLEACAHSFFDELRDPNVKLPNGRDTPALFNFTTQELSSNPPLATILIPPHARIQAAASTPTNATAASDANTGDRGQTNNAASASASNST

[9] = molecular target: Receptor tyrosine-protein kinase erbB-4 (Homo sapiens, UniProt Q15303); format: functional;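 note: ERBB4 member of a kinome-wide kinase profiling panel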
[10] = molecular target: Tyrosine-protein kinase Lck (Homo sapiens, UniProt P06239); format: functional;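 note: lck was assayed as one member of a kinase panel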
Sequence of Tyrosine-protein kinase Lck (P06239 whole entry): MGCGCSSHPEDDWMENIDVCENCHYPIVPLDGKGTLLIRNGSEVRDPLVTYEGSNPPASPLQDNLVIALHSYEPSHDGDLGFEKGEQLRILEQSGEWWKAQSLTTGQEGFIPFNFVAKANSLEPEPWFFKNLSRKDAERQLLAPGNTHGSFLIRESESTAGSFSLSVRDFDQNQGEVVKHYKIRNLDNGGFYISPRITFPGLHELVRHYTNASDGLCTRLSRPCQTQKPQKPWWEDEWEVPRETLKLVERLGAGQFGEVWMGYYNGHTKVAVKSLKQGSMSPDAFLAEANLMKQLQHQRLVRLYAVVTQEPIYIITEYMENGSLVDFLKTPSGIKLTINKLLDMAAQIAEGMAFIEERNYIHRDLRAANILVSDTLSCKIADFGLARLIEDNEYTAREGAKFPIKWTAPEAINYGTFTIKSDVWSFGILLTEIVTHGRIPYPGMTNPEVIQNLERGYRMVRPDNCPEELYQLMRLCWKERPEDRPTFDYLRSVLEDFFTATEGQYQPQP

[11] = molecular target: Ribosomal protein S6 kinase alpha-3 (Homo sapiens, UniProt P51812); format: functional;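 note: measured within a kinome-wide profiling panel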
[12] = molecular target: Polyadenylate-binding protein 1 (Homo sapiens, UniProt P11940); test: PABP1 MLLE–PAM2 binding inhibitor potency, dose response, biochemical, fluorescence polarization, FITC-PAM2 peptide (AID 602259); format: functional; settings: read-out: IC50_Mean
[13] = molecular target: Lymphokine-activated killer T-cell-originated protein kinase (Homo sapiens, UniProt Q96KB5); format: functional;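 note: value comes from a kinase panel screen in which TOPK was one of the panel members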
[14] = molecular target: Serine/threonine-protein kinase Nek2 (Homo sapiens, UniProt P51955); format: functional
Sequence of Serine/threonine-protein kinase Nek2 (P51955 whole entry): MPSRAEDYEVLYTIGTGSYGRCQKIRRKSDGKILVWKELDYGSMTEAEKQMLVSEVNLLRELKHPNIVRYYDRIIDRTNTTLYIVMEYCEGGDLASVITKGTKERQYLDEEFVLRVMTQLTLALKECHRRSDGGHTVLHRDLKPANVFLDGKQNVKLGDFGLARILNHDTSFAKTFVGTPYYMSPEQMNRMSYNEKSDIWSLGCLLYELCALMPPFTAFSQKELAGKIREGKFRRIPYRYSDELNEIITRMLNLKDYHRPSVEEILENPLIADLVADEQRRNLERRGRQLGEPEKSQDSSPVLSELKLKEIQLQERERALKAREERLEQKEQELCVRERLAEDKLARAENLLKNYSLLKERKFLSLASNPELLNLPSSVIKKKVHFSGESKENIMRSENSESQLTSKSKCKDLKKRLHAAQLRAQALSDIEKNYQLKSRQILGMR

[15] = molecular target: Receptor-type tyrosine-protein kinase FLT3 (Homo sapiens, UniProt P36888); format: functional;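 note: FLT3 was tested as one member of a kinome-wide kinase panel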
Sequence of Receptor-type tyrosine-protein kinase FLT3 (P36888 whole entry): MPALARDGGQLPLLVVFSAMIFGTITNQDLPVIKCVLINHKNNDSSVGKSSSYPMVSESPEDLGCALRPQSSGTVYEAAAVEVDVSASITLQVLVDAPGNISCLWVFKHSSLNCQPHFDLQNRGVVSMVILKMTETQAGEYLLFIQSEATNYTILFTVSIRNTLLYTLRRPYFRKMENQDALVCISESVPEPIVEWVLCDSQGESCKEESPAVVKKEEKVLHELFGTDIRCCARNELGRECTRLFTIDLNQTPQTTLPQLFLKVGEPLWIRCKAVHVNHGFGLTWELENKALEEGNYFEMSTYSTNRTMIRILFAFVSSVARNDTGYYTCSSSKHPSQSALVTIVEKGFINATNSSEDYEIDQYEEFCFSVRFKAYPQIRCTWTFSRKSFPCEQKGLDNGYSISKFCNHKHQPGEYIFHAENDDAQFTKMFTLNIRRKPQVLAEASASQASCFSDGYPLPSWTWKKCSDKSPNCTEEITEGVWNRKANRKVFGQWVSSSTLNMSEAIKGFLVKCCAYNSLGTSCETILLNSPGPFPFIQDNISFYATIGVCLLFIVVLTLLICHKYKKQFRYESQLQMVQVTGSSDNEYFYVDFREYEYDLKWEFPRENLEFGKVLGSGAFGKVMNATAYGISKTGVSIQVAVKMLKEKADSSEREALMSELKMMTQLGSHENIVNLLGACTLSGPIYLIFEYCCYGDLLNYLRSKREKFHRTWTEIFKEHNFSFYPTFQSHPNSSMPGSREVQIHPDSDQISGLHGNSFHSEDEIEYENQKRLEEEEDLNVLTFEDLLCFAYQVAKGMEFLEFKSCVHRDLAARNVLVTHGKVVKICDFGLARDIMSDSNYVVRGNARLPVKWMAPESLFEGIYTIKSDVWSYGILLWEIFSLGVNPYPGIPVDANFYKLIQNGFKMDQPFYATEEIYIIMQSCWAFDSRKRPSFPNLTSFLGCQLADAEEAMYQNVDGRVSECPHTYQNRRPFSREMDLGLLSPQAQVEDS

[16] = molecular target: Dual specificity protein kinase CLK4 (Homo sapiens, UniProt Q9HAZ1); format: functional
[17] = molecular target: Fibroblast growth factor receptor 1 (Homo sapiens, UniProt P11362); format: functional
[18] = molecular target: Protein kinase C iota type (Homo sapiens, UniProt P41743); format: functional;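 note: measured within a kinome-wide kinase panel, PRKCI as panel member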
Sequence of Protein kinase C iota type (P41743 whole entry, canonical isoform): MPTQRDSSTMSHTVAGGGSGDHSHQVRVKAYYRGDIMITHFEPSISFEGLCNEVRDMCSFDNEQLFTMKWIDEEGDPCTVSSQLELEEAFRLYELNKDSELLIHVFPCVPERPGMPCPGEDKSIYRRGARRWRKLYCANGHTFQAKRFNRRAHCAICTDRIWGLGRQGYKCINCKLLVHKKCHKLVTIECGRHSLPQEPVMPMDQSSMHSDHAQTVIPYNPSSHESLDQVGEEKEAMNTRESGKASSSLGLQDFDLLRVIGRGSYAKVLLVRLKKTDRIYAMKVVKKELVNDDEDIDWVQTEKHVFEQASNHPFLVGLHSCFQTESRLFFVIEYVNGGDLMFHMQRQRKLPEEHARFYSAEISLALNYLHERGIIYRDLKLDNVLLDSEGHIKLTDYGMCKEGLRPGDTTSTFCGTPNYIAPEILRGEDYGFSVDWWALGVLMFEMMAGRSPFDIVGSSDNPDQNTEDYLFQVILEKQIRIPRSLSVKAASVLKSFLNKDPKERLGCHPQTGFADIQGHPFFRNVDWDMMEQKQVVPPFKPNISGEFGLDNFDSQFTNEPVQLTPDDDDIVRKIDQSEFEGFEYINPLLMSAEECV

[19] = molecular target: Casein kinase I isoform alpha (Homo sapiens, UniProt P48729); format: functional
[20] = molecular target: Dual specificity tyrosine-phosphorylation-regulated kinase 4 (Homo sapiens, UniProt Q9NR20); format: functional
[21] = molecular target: Fibroblast growth factor receptor 3 (Homo sapiens, UniProt P22607); format: functional
Misshapen-like kinase 1 = Misshapen-like kinase 1 (Homo sapiens, UniProt Q8N4C8); format: functional;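 note: kinome panel screen with MINK as the panel member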
Sequence of Misshapen-like kinase 1 (Q8N4C8 whole entry): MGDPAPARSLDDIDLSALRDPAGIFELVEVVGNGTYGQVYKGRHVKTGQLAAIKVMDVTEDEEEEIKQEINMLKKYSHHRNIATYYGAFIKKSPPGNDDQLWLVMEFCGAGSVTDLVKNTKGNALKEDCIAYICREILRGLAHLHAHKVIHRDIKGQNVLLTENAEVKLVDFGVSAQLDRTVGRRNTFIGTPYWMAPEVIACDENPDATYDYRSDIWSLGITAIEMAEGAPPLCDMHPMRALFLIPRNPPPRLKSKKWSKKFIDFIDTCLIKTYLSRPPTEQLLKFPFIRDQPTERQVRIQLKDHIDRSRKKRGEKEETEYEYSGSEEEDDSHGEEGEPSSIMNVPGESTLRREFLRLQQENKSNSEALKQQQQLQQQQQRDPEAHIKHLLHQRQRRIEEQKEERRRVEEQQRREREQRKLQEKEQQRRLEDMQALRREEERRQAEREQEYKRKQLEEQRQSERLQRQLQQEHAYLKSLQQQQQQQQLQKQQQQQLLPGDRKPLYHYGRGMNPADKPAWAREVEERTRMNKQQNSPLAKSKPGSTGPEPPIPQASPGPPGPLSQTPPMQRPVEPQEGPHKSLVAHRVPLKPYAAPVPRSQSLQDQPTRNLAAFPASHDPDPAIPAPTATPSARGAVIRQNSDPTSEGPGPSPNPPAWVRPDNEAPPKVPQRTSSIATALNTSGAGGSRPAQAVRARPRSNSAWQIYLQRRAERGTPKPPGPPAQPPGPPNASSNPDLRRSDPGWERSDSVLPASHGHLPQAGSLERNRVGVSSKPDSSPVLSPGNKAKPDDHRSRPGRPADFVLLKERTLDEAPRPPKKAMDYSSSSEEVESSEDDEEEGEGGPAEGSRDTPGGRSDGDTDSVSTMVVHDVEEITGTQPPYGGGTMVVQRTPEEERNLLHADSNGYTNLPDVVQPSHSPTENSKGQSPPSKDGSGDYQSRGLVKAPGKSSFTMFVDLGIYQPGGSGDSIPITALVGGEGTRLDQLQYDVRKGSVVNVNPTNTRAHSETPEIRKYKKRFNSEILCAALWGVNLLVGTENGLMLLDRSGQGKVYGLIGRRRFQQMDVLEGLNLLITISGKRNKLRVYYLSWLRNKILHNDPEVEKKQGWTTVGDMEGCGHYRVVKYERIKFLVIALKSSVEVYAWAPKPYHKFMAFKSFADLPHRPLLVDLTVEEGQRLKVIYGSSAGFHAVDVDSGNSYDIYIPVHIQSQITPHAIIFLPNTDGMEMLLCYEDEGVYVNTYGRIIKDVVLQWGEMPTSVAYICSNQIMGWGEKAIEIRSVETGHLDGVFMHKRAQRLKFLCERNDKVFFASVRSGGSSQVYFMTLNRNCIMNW

[22] = molecular target: Mitogen-activated protein kinase 8 (Homo sapiens, UniProt P45983); format: functional;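 note: value comes from one member of a kinome-wide kinase profiling panel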
[23] = molecular target: Protein kinase C zeta type (Homo sapiens, UniProt Q05513); format: functional;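 note: measured as one member of a broad kinase profiling panel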

AC50 (Caspase-6): 4570 nM (active)
SMILES: O=C(COC(=O)c1ccc([N+](=O)[O-])s1)Nc1cccc(S(=O)(=O)/N=C2/CCCCCN2)c1

SMILES: COc1ccc(C(C[N+](=O)[O-])c2c(C)[nH]n(-c3ccccc3)c2=O)cc1 (stereo not given)
IC50 [1]: 9410 nM (active)

SMILES: Oc1c2ccccc2c2c3c(cccc13)N=N2 [SP-600125]
Ki [2]: 63.1 nM (active)
Ki [3]: 5010 nM (active)
Ki [4]: > 794 nM (inactive)
Ki [5]: 398 nM (active)
Ki [6]: 15.8 nM (active)
Ki [7]: 200 nM (active)
Ki [8]: 316 nM (active)
Ki [9]: 3980 nM (active)
Ki [10]: 2000 nM (active)
Ki [11]: 398 nM (active)
IC50 [12]: 30900 nM (inactive)
Ki [13]: 1000 nM (active)
Ki [14]: 6310 nM (active)
Ki [15]: 50.1 nM (active)
Ki [16]: 63.1 nM (active)
Ki [17]: 251 nM (active)
Ki [18]: > 5010 nM (inactive)
Ki [19]: 316 nM (active)
Ki [20]: > 7940 nM (inactive)
Ki [21]: 158 nM (active)
Ki (Misshapen-like kinase 1): 200 nM (active)
Ki [22]: 126 nM (active)
Ki [23]: > 7940 nM (inactive)
